In EP1541694A1, “Methods of identifying, selecting and/or characterizing compounds which modulate the activity of a Src family kinase” (Sirenade Pharmaceuticals AG, priority 2003, dated 2005):

Assays:
[1] = test system: Src-TQ/YF expressing cell line ZM170.21; test: Suppression of tet-induced phenotype changes (cell scattering) in suspension, Ultra Low Attachment plates; type: cell-based, human; conditions: ZM170.21 (Src-TQ/YF) in suspension, Ultralow Attachment Plates
Procedure: (§1) Cells were seeded into 24-well or 96-well "Ultra Low Attachment" plates (cat.no.: 3473, Costar Corning Corp., Acton, MA, USA). These plates are coated with a covalently bound hydrogel layer that prevents cellular attachment to the polystyrene surface of the wells. As the cells were not attached to these wells, a medium change was impossible here. However, the phenotypes were tested in full serum-containing medium in the absence or presence of EGF, PDGF-BB or HGF as detailed above. Tet-induction was also started the day after seeding.
(§2) Largely irrespective of the cell numbers per well, the cells of all cell lines were in suspension and formed one or few very condensed/compact, opaque, rod-, disc- or kidney-shaped aggregates with a smooth surface, in which individual cells could not be discerned. Phenotype changes became apparent ~24 h after tet induction in ZM77 and ZM170 cell lines only, and Δpt(-tet →+tet)max was reached after ~2 days. In these cell lines Src-YF or Src-TQ/YF expression, respectively, induces scattering of the cells. Many cells are floating in the medium individually or in small clusters and the remaining large aggregate(s) are irregular-shaped and rather loose than compact; individual cells can easily be discerned and thus, the surfaces of these aggregates are rough as with bunches of grapes (Fig.14a,b). This biological response was readily observed with or without any of the above growth factors, wherefore normal growth medium without any additional growth factor was subsequently used in this assay type.
(§3) To that end, the test compounds PP1-Chr., SU6656 and PP2 were individually added to the cells together with tet, and the development of the phenotype changes in the presence of these compounds was monitored subsequently in direct comparison with tet-induced cells that received no compound (Fig.14c-j). The compounds were also added to the cells without tet-induction of Src/ Src mutant expression as controls for non-specific/ toxicity effects. The experiments were performed with several ZM77 cell lines.

[2] = test system: Src-YF expressing ZM77 cell lines; test: as above; type: cell-based, human; conditions: Ultralow Attachment Plates
Procedure: as §1, §2, §3

[3] = test system: Src-TQ/YF expressing cell line ZM170.21; test: CTB and ATP cell viability/metabolic activity assays, suppression of tet-induced reduction; type: cell-based, human; conditions: ZM170.21 (Src-TQ/YF), 5µM PP2 + 10µM PP1-Chr., 40µM D5, 1µM 17-AAG, 1µM radicicol
Source text: (§4) To proof the concept of the assay platform according to the invention in a quantitative manner with a highly parallel readout, the following cell viability / metabolic activity assays from Promega according to the manufacturer's protocols: "CellTiter 96 AQueous One Solution Cell Proliferation Assay (MTS)", CellTiter-BlueTM Cell Viability Assay (CTB), and the ATP-status assay "CellTiter-Glo Luminescent Cell Viability Assay" (ATP) were used to obtain quantitative values reflecting (aspects of) the phenotype changes. The cells were seeded into white-walled/ clear bottom 96-well plates ["MICROTEST" by Falcon, cat.no. 353947] for MTS and ATP assays and in black-walled/ clear bottom 96-well plates ["MICROTEST" by Falcon, cat.no. 353948] for the CTB assay at the appropriate densities. Tet and/or compound addition (where applicable) was started the next day. Measurements were taken 1,2 and 3 days later using the Wallac Victor^2TM multilabel plate reader (Perkin Elmer). Absorbance was measured at 490nm (MTS). Luminescence mode was used for the ATP assay. For CTB fluorescence excitation wavelength was 550nm (filter: 550(20)nm), emission wavelength was 590 nm (filter: 590(20)nm). Indicated are the means of sixplicate determinations (from 6 independent wells) in the absence of tet (mean(-tet)) and in the presence of tet (mean(+tet)), followed by the respective corresponding standard deviations SD(-tet) and SD(+tet). The cell viability/ metabolic activity upon tet-induction in relation to the cell viability/ metabolic activity without tet ("+/tet(means") is calculated from the quotient of the means of the measured cell viability/ metabolic activity signals from i) cells incubated without tet and ii) cells incubated with tet. […] Furthermore indicated are the corresponding Z' values. In the present context: Z'=1-(3(SD(+tet)+SD(-tet))/ |mean(+tet)-mean(-tet)|. […] SD=0) (Zhang et al., 1999). Z'≥0 is required for an assay useful for a screening approach; a Z'≥0.5 is considered excellent for an assay with regard to high throughput screening. […] Three more parameters reflecting the effects of compounds on cell viability/metabolic activity in these assays are indicated in Tab.3 and Tab.4: Toxicity reflects the nonspecific (i.e. irrespective of tet-induced Src/ Src mutant expression) effects of a compound on the viability/ metabolic activity of the cells. It is calculated as toxicity=1-mean(-tet, compound)/mean(-tet,(DMSO)). […] The suppression value quantifies the potency of a compound with respect to suppression of the tet-induced change in cell viability / metabolic activity. Usually, tet-induction reduces cell viability / metabolic activity due to Src activity and addition of a Src inhibitory compound mitigates this reduction. A suppression of 100% means that the compound totally suppresses the tet-induced decrease in cell viability / metabolic activity (as in the absence of tet). The following formula is employed: Suppres-sion=([…]). Finally, the corresponding Z' value is calculated as follows: Z'(suppression)=1- 3([…]). The factor Qtox corrects the means and SD determined in the absence of a compound for the (nonspecific) toxicity effect of the respective compound, which would otherwise overlay and obscure the specific suppression, if toxicity is not neglectable. […] On each day 4 measurements are taken (1, 2, 3 and 4 h after the addition of the CTB assay reagents). […]

[4] = test system: Src-YF expressing cell line ZM77.8; test: as above; type: cell-based, human; conditions: ZM77.8 (Src-YF), 5µM PP2 + 10µM PP1-Chr., 40µM D5, 1µM 17-AAG, 1µM radicicol
Source text: as §4

[5] = test system: Abl-TQ; conditions: cited from earlier work
[6] = test system: Src family kinases when they carry the respective TQ mutations; conditions: cited from earlier work
[7] = test system: cell line ZM76.3 (Src-KA); test: CTB cell viability assay, suppression of tet-induced reduction; type: cell-based, human; conditions: ZM76.3, CTB assay
Source text: To proof the concept of the assay platform according to the invention in a quantitative manner with a highly parallel readout, the following cell viability / metabolic activity assays from Promega according to the manufacturer's protocols: "CellTiter 96 AQueous One Solution Cell Proliferation Assay (MTS)", CellTiter-BlueTM Cell Viability Assay (CTB), and the ATP-status assay "CellTiter-Glo Luminescent Cell Viability Assay" (ATP) were used to obtain quantitative values reflecting (aspects of) the phenotype changes. The cells were seeded into white-walled/ clear bottom 96-well plates ["MICROTEST" by Falcon, cat.no. […] Measurements were taken 1,2 and 3 days later using the Wallac Victor^2TM multilabel plate reader (Perkin Elmer). Absorbance was measured at 490nm (MTS). Luminescence mode was used for the ATP assay. For CTB fluorescence excitation wavelength was 550nm (filter: 550(20)nm), emission wavelength was 590 nm (filter: 590(20)nm). […] The cell viability/ metabolic activity upon tet-induction in relation to the cell viability/ metabolic activity without tet ("+/tet(means") is calculated from the quotient of the means of the measured cell viability/ metabolic activity signals from i) cells incubated without tet and ii) cells incubated with tet. […] It is calculated as toxicity=1-mean(-tet, compound)/mean(-tet,(DMSO)). […]

[8] = test system: Src-YF expressing ZM77 cell lines; test: Suppression of tet-induced phenotype changes, evaluated by eye/microscope, normal cell culture plates; type: cell-based, human; conditions: adherent, serum-containing medium
Procedure: Phenotype changes -tet → +tet were evaluated in 24-well plates (Nunc; cat.no. 143982) under the following several different growth conditions to identify the strongest possible response (Δpt(-tet→+tet)max) 1. full (10% serum containing) growth medium a) without any growth factor supplement (-), b) with epidermal growth factor (EGF; 100ng/ml) (cat.no. 115, Research Diagnostics Inc. (RDI), Flanders, NJ, USA) or c) platelet derived growth factor type BB (PDGF-BB; 30ng/ml) (cat.no. 114b, RDI) or d) hepatocyte growth factor (HGF; 20ng/ml) (RDI, cat.no.300-010), or 2. serum-free medium a) - or b) +EGF or c) +PDGF or d) +HGF. In all cases, cells were first seeded into standard 24-well or 96-well plates (Nunc) in full growth medium. The cell number seeded per well was also varied to identify the most suitable cell densities producing Δpt(-tet→+tet)max. […]
To that end, the test compounds PP1-Chr., PP2 (cat.no. 529573, Calbiochem) and SU6656 (cat.no. 572635, Calbiochem) (see Fig.9p for chemical structures) were individually added to the cells together with tet, and the development of the phenotype changes in the presence of these compounds was monitored subsequently in direct comparison with cells that received no compound or only vehicle (0.2% DMSO) together with tet induction. […]

Structure (SMILES)	suppression of tet-induced phenotype (cell scattering) [1]	suppression of tet-induced phenotype changes (cell scattering) [2]	suppression of the +/-tet(means)-values [3]	suppression of the tet-induced reductions of the cell viability/ metabolic activity (+/-tet(means)-values) [4]	further results
C=CCNC1=C2C[C@@H](C)C[C@H](OC)[C@H](O)[C@@H](C)/C=C(\C)[C@H](OC(N)=O)[C@@H](OC)/C=C\C=C(/C)C(=O)NC(=CC1=O)C2=O [17-AAG]	suppress to a large extent	suppress to a large extent	equally effective	equally effective	–
Cc1ccc(NC(=O)c2ccc(CN3CCN(C)CC3)cc2)cc1Nc1nccc(-c2cccnc2)n1 [Gleevec®]	–	–	–	–	inhibition of Abl-TQ [5]: does not inhibit
Cc1ccc(-c2nn(C(C)(C)C)c3ncnc(N)c23)cc1 [PP1]	–	–	–	–	inhibition of Src family kinases carrying the TQ mutations [6]: do not inhibit
C[C@@H]1C[C@H]2O[C@@H]2/C=C\C=C\C(=O)Cc2c(Cl)c(O)cc(O)c2C(=O)O1 [Radicicol, radicicol]	suppress to a large extent	suppress to a large extent	equally effective	equally effective	suppression of the Src-KA-induced phenotype [7]: effectively suppressing
CN(C)S(=O)(=O)c1ccc2c(c1)/C(=C/c1cc3c([nH]1)CCCC3)C(=O)N2 [SU6656]	–	partially suppressed	–	–	suppression of tet-induced phenotype changes [8]: partially suppressed
